Test results published in ChEMBL document CHEMBL5154721, “Discovery of HDAC6-Selective Inhibitor NN-390 with in Vitro Efficacy in Group 3 Medulloblastoma” (J Med Chem, 2022).
pIC50: −log10 of the molar value. Calls of active or inactive are those of the source. The calls are words filed in the database; no cut-off is given here.

System: MV4-11
Test: Induction of apoptosis in human MV4-11 cells assessed as late apoptotic cells at 0.25 uM after 24 hrs by Annexin V/PI staining based flow cytometric analysis (Rvb=8.13%)
Format: functional
Conditions: not given

Row | Compound | Activity [%]
1 | O=C(CCCCCCNC(=O)c1cnc(N(c2ccccc2)c2ccccc2Cl)nc1)NO [CITARINOSTAT] | 8.31

System: MV4-11
Test: Increase in acetylation of histone H3 in human MV4-11 cells at 0.1 uM after 6 hrs by Western blot analysis
Format: functional, cell-based
Conditions: not given

Row | Compound | inhibition | Activity
2 | O=C(CCCCCCNC(=O)c1cnc(N(c2ccccc2)c2ccccc2Cl)nc1)NO [CITARINOSTAT] | Active | –
3 | CC(C)N(Cc1ccc(C(=O)NO)cc1)S(=O)(=O)c1c(F)c(F)c(F)c(F)c1F | – | Active

System: not listed separately
Test: Stability in human plasma assessed as half life measured upto 60 mins by LC-MS/MS analysis
Format: ADME, cell-free
Conditions: not given

Row | half-life [min] | Compound
4 | 22 | CC(C)N(Cc1ccc(C(=O)NO)cc1)S(=O)(=O)c1c(F)c(F)c(F)c(F)c1F
5 | 41 | O=C(NO)c1ccc(CN(C2CC2)S(=O)(=O)c2cc(F)c(F)c(F)c2F)cc1

Target: T1, Histone deacetylase 8 (Homo sapiens, UniProt Q9BY41)
T1 sequence (Q9BY41 whole entry): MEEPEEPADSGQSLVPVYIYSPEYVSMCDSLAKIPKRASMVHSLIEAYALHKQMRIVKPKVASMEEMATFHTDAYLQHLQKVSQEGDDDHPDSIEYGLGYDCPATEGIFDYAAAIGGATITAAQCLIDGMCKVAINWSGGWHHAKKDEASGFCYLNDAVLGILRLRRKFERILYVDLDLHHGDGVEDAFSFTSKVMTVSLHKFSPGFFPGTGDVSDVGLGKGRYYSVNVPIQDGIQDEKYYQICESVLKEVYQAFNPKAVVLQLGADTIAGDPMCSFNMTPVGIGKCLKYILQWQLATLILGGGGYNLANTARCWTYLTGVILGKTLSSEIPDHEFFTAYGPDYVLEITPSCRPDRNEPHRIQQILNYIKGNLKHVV
Test: Inhibition of full length human recombinant HDAC8 expressed in Sf9 baculovirus system using FAM-labeled acetylated peptide as substrate by measuring fluorescence intensity by EMSA method
Conditions: not given

Row | pIC50 | Compound
6 | < 6.00 | O=C(NO)c1ccc(CN(C2CC2)S(=O)(=O)c2cc(F)c(F)c(F)c2F)cc1

Target: T2, Protein deacetylase HDAC6 (Homo sapiens, UniProt Q9UBN7)
T2 sequence (Q9UBN7 whole entry): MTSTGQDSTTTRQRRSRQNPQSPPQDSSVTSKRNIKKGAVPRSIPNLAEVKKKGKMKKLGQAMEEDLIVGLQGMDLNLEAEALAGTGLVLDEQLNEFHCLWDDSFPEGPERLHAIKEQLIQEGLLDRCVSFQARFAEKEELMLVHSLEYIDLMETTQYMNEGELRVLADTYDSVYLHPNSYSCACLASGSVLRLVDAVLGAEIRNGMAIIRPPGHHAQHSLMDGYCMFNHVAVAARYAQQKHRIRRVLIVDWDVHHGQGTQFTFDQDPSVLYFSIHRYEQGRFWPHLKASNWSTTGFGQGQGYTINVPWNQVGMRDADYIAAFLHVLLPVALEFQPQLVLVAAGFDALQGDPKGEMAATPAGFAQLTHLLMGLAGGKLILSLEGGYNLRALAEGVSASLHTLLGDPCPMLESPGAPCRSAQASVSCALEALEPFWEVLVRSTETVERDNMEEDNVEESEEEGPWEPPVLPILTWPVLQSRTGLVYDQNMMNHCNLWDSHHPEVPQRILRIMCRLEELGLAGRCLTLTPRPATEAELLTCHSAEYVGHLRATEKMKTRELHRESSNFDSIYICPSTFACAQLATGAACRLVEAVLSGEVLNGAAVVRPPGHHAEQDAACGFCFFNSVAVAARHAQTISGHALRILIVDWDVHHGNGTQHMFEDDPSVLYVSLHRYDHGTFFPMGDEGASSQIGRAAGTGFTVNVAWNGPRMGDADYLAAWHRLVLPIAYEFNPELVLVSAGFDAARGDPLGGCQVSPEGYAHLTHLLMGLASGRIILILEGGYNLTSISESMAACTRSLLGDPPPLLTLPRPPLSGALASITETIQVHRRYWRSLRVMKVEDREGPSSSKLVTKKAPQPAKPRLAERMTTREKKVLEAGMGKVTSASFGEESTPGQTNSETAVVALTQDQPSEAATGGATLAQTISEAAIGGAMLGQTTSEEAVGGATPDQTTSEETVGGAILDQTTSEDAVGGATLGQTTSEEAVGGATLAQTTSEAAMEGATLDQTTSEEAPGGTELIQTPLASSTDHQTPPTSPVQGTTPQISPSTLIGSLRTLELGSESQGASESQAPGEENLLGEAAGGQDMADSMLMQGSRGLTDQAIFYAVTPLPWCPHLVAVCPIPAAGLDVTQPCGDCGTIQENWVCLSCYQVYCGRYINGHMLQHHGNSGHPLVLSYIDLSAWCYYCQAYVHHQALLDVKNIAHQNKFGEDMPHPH
Test: Inhibition of full length human recombinant HDAC6 expressed in Sf9 baculovirus system using FAM-labeled acetylated peptide as substrate by measuring fluorescence intensity by EMSA method
Conditions: not given

Row | pIC50 | Compound
7 | 8.36 | CC(C)N(Cc1ccc(C(=O)NO)cc1)S(=O)(=O)c1c(F)c(F)c(F)c(F)c1F

System: not listed separately
Test: AUCinfinity in CD-1 mouse at 20 mg/kg, ip
Format: ADME, organism-based
Set-up: time infinity, dose 20 mg/kg, route ip
Conditions: in vivo

Row | AUC(0-inf) [ng·h/mL] | Compound
8 | 2550 | CCCCN(Cc1ccc(C(=O)NO)cc1)C(=O)Nc1ccccc1 [NEXTURASTAT A]
9 | 1520 | O=C(NO)c1ccc(CN(C2CC2)S(=O)(=O)c2cc(F)c(F)c(F)c2F)cc1

System: MV4-11
Test: cells
Format: functional, cell-based
Conditions: Homo sapiens, MV4-11, 72 h

Row | pIC50 | Compound
10 | 6.40 | O=C(NO)c1ccc(CN(C2CC2)S(=O)(=O)c2cc(F)c(F)c(F)c2F)cc1

System: not listed separately
Test: Competitive inhibition of N-terminal His-SUMO tagged zebra fish recombinant HDAC6 catalytic domain 2 transfected with pET28b(+) vector in Escherichia coli BL21 (DE3) RILP cells incubated for 10 mins followed by addition of FITC-M344 measured af ter 10 mins by fluorescence polarization assay
Set-up: species or system Danio rerio
Conditions: not given

Row | Compound | pIC50
11 | O=C(CCCCCCNC(=O)c1cnc(N(c2ccccc2)c2ccccc2Cl)nc1)NO [CITARINOSTAT] | 6.81
12 | CC(C)N(Cc1ccc(C(=O)NO)cc1)S(=O)(=O)c1c(F)c(F)c(F)c(F)c1F | 6.74
13 | O=C(NO)c1ccc(CN(C2CC2)S(=O)(=O)c2cc(F)c(F)c(F)c2F)cc1 | 6.76
14 | O=C(/C=C/c1cccc(S(=O)(=O)Nc2ccccc2)c1)NO [BELINOSTAT] | 6.67
15 | O=C(CCCCCCNC(=O)c1cnc(N(c2ccccc2)c2ccccc2)nc1)NO [RICOLINOSTAT] | 7.04

System: not listed separately
Test: Half life in CD-1 mouse at 20 mg/kg, ip
Format: ADME, organism-based
Conditions: in vivo

Row | half-life [min] | Compound
16 | 114 | CCCCN(Cc1ccc(C(=O)NO)cc1)C(=O)Nc1ccccc1 [NEXTURASTAT A]

System: HD-MB03
Test: […] of self renewal of BTIC-enriched human HD-MB03 cells at 964 nM incubated for 72 hrs by sphere formation assay
Format: functional, cell-based
Conditions: not given

Row | Compound | Activity
17 | O=C(CCCCCCNC(=O)c1cnc(N(c2ccccc2)c2ccccc2Cl)nc1)NO [CITARINOSTAT] | Active

System: MV4-11
Test: Induction of apoptosis in human MV4-11 cells assessed as late apoptotic cells at 2 uM after 18 hrs by Annexin V/PI staining based flow cytometric analysis
Format: functional
Conditions: not given

Row | Compound | Activity [%]
18 | O=C(CCCCCCNC(=O)c1cnc(N(c2ccccc2)c2ccccc2Cl)nc1)NO [CITARINOSTAT] | 24

System: not listed separately
Test: AUC/D in CD-1 mouse at 20 mg/kg, ip
Format: ADME, organism-based
Conditions: in vivo

Row | AUC/dose [ng·h/mL] | Compound
19 | 126 | CCCCN(Cc1ccc(C(=O)NO)cc1)C(=O)Nc1ccccc1 [NEXTURASTAT A]
20 | 79 | O=C(NO)c1ccc(CN(C2CC2)S(=O)(=O)c2cc(F)c(F)c(F)c2F)cc1

System: not listed separately
Test: Therapeutic window, ratio of IC50 for human fetal neuronal stem cells to IC50 for human HD-MB03 cells
Format: ADME
Conditions: fetal neuronal stem cells versus HD-MB03 cells, read-out: Ratio IC50

Row | Compound | selectivity ratio
21 | O=C(/C=C/c1cccc(S(=O)(=O)Nc2ccccc2)c1)NO [BELINOSTAT] | 3.7

System: not listed separately
Test: Cmax in CD-1 mouse at 20 mg/kg, ip
Format: ADME, organism-based
Set-up: dose 20 mg/kg, route ip
Conditions: in vivo

Row | Cmax [ng/mL] | Compound
22 | 750 | CCCCN(Cc1ccc(C(=O)NO)cc1)C(=O)Nc1ccccc1 [NEXTURASTAT A]

System: MM1.S
Test: Cytotoxicity against human MM1.S cells assessed as inhibition of cell growth incubated for 72 hrs measured by spectrophotometer analysis
Format: functional, cell-based
Conditions: not given

Row | Compound | pIC50
23 | O=C(CCCCCCC(=O)Nc1ccccc1)NO [VORINOSTAT] | 5.81
24 | CC(C)N(Cc1ccc(C(=O)NO)cc1)S(=O)(=O)c1c(F)c(F)c(F)c(F)c1F | 6.36
25 | CCCCN(Cc1ccc(C(=O)NO)cc1)C(=O)Nc1ccccc1 [NEXTURASTAT A] | 5.75
26 | O=C(NO)c1ccc(CN(C2CC2)S(=O)(=O)c2cc(F)c(F)c(F)c2F)cc1 | 6.32
27 | O=C(CCCCCCNC(=O)c1cnc(N(c2ccccc2)c2ccccc2)nc1)NO [RICOLINOSTAT] | 6.08
28 | CC(C)N(Cc1ccc(C(=O)NO)cc1)C(=O)c1c(F)c(F)c(F)c(F)c1F | 4.91

System: not listed separately
Test: Cytotoxicity against primary normal human fibroblast cells assessed as inhibition of cell growth incubated for 72 hrs measured by spectrophotometer analysis
Format: toxicity, cell-based
Conditions: not given

Row | Compound | IC50 at 72 h [nM]
29 | CC(C)N(Cc1ccc(C(=O)NO)cc1)S(=O)(=O)c1c(F)c(F)c(F)c(F)c1F | 2300

System: not listed separately
Test: Cytotoxicity against HUVEC cells assessed as inhibition of cell growth incubated for 72 hrs measured by spectrophotometer analysis
Format: toxicity, cell-based
Conditions: human

Row | Compound | IC50 at 72 h [nM]
30 | CC(C)N(Cc1ccc(C(=O)NO)cc1)S(=O)(=O)c1c(F)c(F)c(F)c(F)c1F | 3700

System: not listed separately
Test: in vitro
Conditions: human, MRC9 cells

Row | Compound | IC50 at 72 h [nM]
31 | CC(C)N(Cc1ccc(C(=O)NO)cc1)S(=O)(=O)c1c(F)c(F)c(F)c(F)c1F | > 20000
32 | O=C(NO)c1ccc(CN(C2CC2)S(=O)(=O)c2cc(F)c(F)c(F)c2F)cc1 | > 20000
33 | CC(C)N(Cc1ccc(C(=O)NO)cc1)C(=O)c1c(F)c(F)c(F)c(F)c1F | > 50000

Now from value to compound:

Row | IC50 at 72 h [nM] | Compound
34 | > 30000 | O=C(CCCCCCNC(=O)c1cnc(N(c2ccccc2)c2ccccc2Cl)nc1)NO [CITARINOSTAT]
35 | > 20000 | CCCCN(Cc1ccc(C(=O)NO)cc1)C(=O)Nc1ccccc1 [NEXTURASTAT A]
36 | > 20000 | O=C(CCCCCCNC(=O)c1cnc(N(c2ccccc2)c2ccccc2)nc1)NO [RICOLINOSTAT]

System: not listed separately
Test: Cytotoxicity against human HD-MB03 cells assessed as inhibition of cell growth incubated for 72 hrs measured by spectrophotometer analysis
Format: functional, cell-based
Conditions: HD-MB03, 72 h

Row | Compound | pIC50
37 | O=C(CCCCCCNC(=O)c1cnc(N(c2ccccc2)c2ccccc2Cl)nc1)NO [CITARINOSTAT] | 5.24
38 | O=C(/C=C/c1cccc(S(=O)(=O)Nc2ccccc2)c1)NO [BELINOSTAT] | 6.49
39 | O=C(CCCCCCNC(=O)c1cnc(N(c2ccccc2)c2ccccc2)nc1)NO [RICOLINOSTAT] | 5.28

System: HD-MB03
Test: Increase in acetylation of histone H3 in human HD-MB03 cells at 211 nM for 6 hrs by Western blotting anlaysis
Format: functional, cell-based
Conditions: not given

Row | Compound | Activity
40 | O=C(CCCCCCNC(=O)c1cnc(N(c2ccccc2)c2ccccc2Cl)nc1)NO [CITARINOSTAT] | Active

System: not listed separately
Test: AUClast in CD-1 mouse at 20 mg/kg, ip
Format: ADME, organism-based
Set-up: time 0 - last, dose 20 mg/kg, route ip
Conditions: in vivo

Row | AUC(0-t) [ng·h/mL] | Compound
41 | 2520 | CCCCN(Cc1ccc(C(=O)NO)cc1)C(=O)Nc1ccccc1 [NEXTURASTAT A]

System: not listed separately
Test: Cytotoxicity against human fetal neuronal stem cells assessed as inhibition of cell growth incubated for 72 hrs measured by spectrophotometer analysis
Format: toxicity, cell-based, NSC
Conditions: not given

Row | Compound | IC50 at 72 h [nM]
42 | O=C(CCCCCCNC(=O)c1cnc(N(c2ccccc2)c2ccccc2Cl)nc1)NO [CITARINOSTAT] | 4350
43 | O=C(NO)c1ccc(CN(C2CC2)S(=O)(=O)c2cc(F)c(F)c(F)c2F)cc1 | 1430
